Experimental data: the METLIN SMRT retention time set (Domingo-Almenara et al. 2019)

Experiment: gradient 5% acetonitrile 3 min, to 50% in 2 min, to 85% in 15 min, held 3 min, 100 µL/min
Conditions: column: Zorbax Extend-C18 2.1 x 50 mm; eluents: water / acetonitrile, 0.1% formic acid
Summary of the method: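 Each retention time is based on an adduct peak selected computationally and verified by manual inspection. Measurements used HPLC–quadrupole time-of-flight mass spectrometry in positive and negative ionization mode on mixtures of ~100 pure standards. Chromatography ran on a Zorbax Extend-C18 column (2.1 × 50 mm, 1.8 μm) at 100 μL/min with water and acetonitrile, each containing 0.1% formic acid, and dead and dwell volumes of 40 μL and 900 μL.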

Structure (SMILES): CCCNC(=O)N1CCCN(C2=NS(=O)(=O)C(c3ccc(C)cc3)=C2C)CC1
- RP-LC retention time: 776 s

Structure (SMILES): CC(=O)N1CCc2nn(CC(=O)Nc3ccccc3Cl)c(=O)cc2C1
- RP-LC retention time: 606 s

Structure (SMILES): Cc1cnc(C(=O)NC2C[C@H]3CC[C@@H](C2)N3C(=O)c2cnc(C)cn2)cn1 (stereo partly specified)
- RP-LC retention time: 584 s

Structure (SMILES): O=S(=O)(c1cccn2c(SCc3cccc(F)c3)nnc12)N1CCCC1
- RP-LC retention time: 831 s

Structure (SMILES): O=C(CCc1nnc(C(=O)Nc2ccccc2)s1)NCCc1c[nH]c2ccccc12
- RP-LC retention time: 843 s

Structure (SMILES): CCc1nc2ccccc2c(=O)n1Cc1noc(-c2ccc3c(c2)OCO3)n1
- RP-LC retention time: 964 s

Structure (SMILES): CC(=O)N1CCCCCCNC(=O)[C@@H]2CCC[C@@H]21
- RP-LC retention time: 624 s

Structure (SMILES): COc1cc(NC(=O)N2CCN(Cc3ccccc3)c3ncccc32)cc(OC)c1OC
- RP-LC retention time: 665 s

Structure (SMILES): CCN(CC)C(=O)c1c(C)sc2ccn(C)c(=O)c12
- RP-LC retention time: 639 s

Structure (SMILES): COc1ccc(CN2CCC3(CC2)CC(C)(O)CCO3)cc1C (stereo unspecified)
- RP-LC retention time: 629 s

Structure (SMILES): CCCN(C(=O)CC)c1nc(-c2ccc(Br)cc2)cs1
- RP-LC retention time: 1410 s

Structure (SMILES): COc1ccc(S(=O)(=O)N2CCc3c(c(-c4nnc(-c5ccc(F)cc5)o4)nn3C)C2)cc1
- RP-LC retention time: 945 s

Structure (SMILES): COC(=O)c1c(C)[nH]c(C(=O)N2CCCC(C(=O)N3CCN(c4ccccc4)CC3)C2)c1C (stereo unspecified)
- RP-LC retention time: 790 s

Structure (SMILES): CCc1nnc(NC(=O)CSc2nc3ccccc3[nH]2)s1
- RP-LC retention time: 656 s

Structure (SMILES): COc1ccc(Cl)cc1NS(=O)(=O)c1ccc2c(c1)C(=O)N(C)c1ncccc1O2
- RP-LC retention time: 958 s

Structure (SMILES): CC(Oc1ccccc1)C(=O)N1CC(c2nc(-c3ccsc3)nn2C)C1 (stereo unspecified)
- RP-LC retention time: 766 s

Structure (SMILES): Cc1ccc(C(C)NC(=O)C2CCN(c3nccnc3Oc3cccc(C)c3)CC2)cc1 (stereo unspecified)
- RP-LC retention time: 1070 s

Structure (SMILES): NC(=O)c1cnn2c3c(cnc12)CCCCCC3
- RP-LC retention time: 801 s

Structure (SMILES): CCc1ccc(NC(=O)CN2C(=O)NC3(CCCCC3)C2=O)cc1
- RP-LC retention time: 765 s

Structure (SMILES): O=C(OCc1ccncc1)c1cn(-c2ccc(F)cc2)c(=O)c2ccccc12
- RP-LC retention time: 703 s

Structure (SMILES): CCS(=O)(=O)Nc1ccc(-c2noc(COc3ccc(F)cc3)n2)cc1
- RP-LC retention time: 931 s

Structure (SMILES): COC(=O)c1cc(C2CC2)nc2c1c(=O)n(Cc1cccc(C)c1)c(=O)n2C
- RP-LC retention time: 1090 s

Structure (SMILES): CCn1c(=O)c2ccccc2n(Cc2nc(-c3cccc(Br)c3)no2)c1=O
- RP-LC retention time: 1120 s

Structure (SMILES): COc1ccc(NC(=O)N2c3ccccc3CC2c2nc(C(C)C)no2)cc1OC (stereo unspecified)
- RP-LC retention time: 935 s

Structure (SMILES): CC(=O)NCC1CNCC12CCCCC2 (stereo unspecified)
- RP-LC retention time: 509 s

Structure (SMILES): COc1ccc(NC(=O)N2CCN(c3nc4ccccc4nc3C(F)(F)F)CC2)c(OC)c1
- RP-LC retention time: 1070 s

Structure (SMILES): Cc1ccc(Nc2nc3ccncc3n(Cc3ccccc3)c2=O)cc1Cl
- RP-LC retention time: 898 s

Structure (SMILES): Cc1ccc(-n2nc(N3CCCC(C(=O)NCc4ccc(F)cc4)C3)ccc2=O)cc1Cl (stereo unspecified)
- RP-LC retention time: 929 s

Structure (SMILES): Cc1noc(C2CCCCN2C(=O)c2ccoc2)n1 (stereo unspecified)
- RP-LC retention time: 670 s

Structure (SMILES): Cc1oc2ncn(CC(=O)N3CCN(c4ccccn4)CC3)c(=O)c2c1C
- RP-LC retention time: 565 s

Structure (SMILES): CCOC(=O)C1CCN(c2cc3c(cc2NC(=O)C(C)(C)C)n(C)c(=O)c(=O)n3C)CC1
- RP-LC retention time: 844 s

Structure (SMILES): CCCCC(=O)Nc1cnc(N(CC)CC(=O)C(C)(C)C)c(C(=O)O)c1
- RP-LC retention time: 628 s

Structure (SMILES): CN1CCN(S(=O)(=O)c2ccc3nn(Cc4cccc(F)c4)c(=O)n3c2)CC1
- RP-LC retention time: 964 s

Structure (SMILES): CCN(CC)S(=O)(=O)c1ccc2c(c1)N(CC(=O)NC1CCCCCC1)C(=O)C1CCCCN21 (stereo unspecified)
- RP-LC retention time: 1050 s

Structure (SMILES): O=C(O)c1cccn2c(=O)c3cc(Cl)ccc3nc12
- RP-LC retention time: 782 s

Structure (SMILES): Cc1nc(-c2ccc3c(c2)CCN3C(=O)C2COc3ccccc3O2)cs1 (stereo unspecified)
- RP-LC retention time: 1020 s

Structure (SMILES): COc1ccc(NC(=O)c2cnc3c(c2)c(=O)n(C)c(=O)n3-c2ccccc2)cc1F
- RP-LC retention time: 858 s

Structure (SMILES): Cn1cc(C=O)c2nccnc21
- RP-LC retention time: 631 s

Structure (SMILES): CCn1ccc2sc(C)c(C(=O)NCc3ccccc3OC)c2c1=O
- RP-LC retention time: 796 s

Structure (SMILES): Cc1ccc(C)c(NS(=O)(=O)c2ccc(-c3c(C)noc3C)cc2)c1
- RP-LC retention time: 996 s

Structure (SMILES): COCCNc1c(C(=O)OC)c(=O)[nH]c2c(Cl)cccc12
- RP-LC retention time: 645 s

Structure (SMILES): O=C(Cc1ccccc1Cl)NC1CCN(c2cc(-c3ccccc3)[nH]n2)C1 (stereo unspecified)
- RP-LC retention time: 721 s

Structure (SMILES): CSc1cccc(NC(=O)NC2CCN(c3ccc(F)cc3)C2=O)c1 (stereo unspecified)
- RP-LC retention time: 824 s

Structure (SMILES): COc1ccc(-c2nnc(-c3ccc(Cl)c(S(=O)(=O)N4CCOCC4)c3)o2)cc1
- RP-LC retention time: 897 s

Structure (SMILES): Cc1ccc2c(c1)Oc1ccccc1N=C2
- RP-LC retention time: 993 s

Structure (SMILES): Cc1oc(-c2ccc(NC(=O)c3ccc(Br)cc3)cc2)nc1Cn1cccn1
- RP-LC retention time: 948 s

Structure (SMILES): CSc1cccc(NC(=O)C2CCCN(c3ccc(=O)n(-c4cccc(Cl)c4)n3)C2)c1 (stereo unspecified)
- RP-LC retention time: 1010 s

Structure (SMILES): COc1cccc(CC(=O)N2CCc3nc(-c4ccc(Cl)cc4)ncc3C2)c1
- RP-LC retention time: 1050 s

Structure (SMILES): Cc1ccc(-c2cn3nc(N4CCCC(C(=O)N5CCOCC5)C4)sc3n2)cc1 (stereo unspecified)
- RP-LC retention time: 800 s

Structure (SMILES): Cc1ccc(C)c(N2CCN(C(=O)c3cn4cc(C)ccc4n3)CC2)c1
- RP-LC retention time: 797 s

Structure (SMILES): CCNS(=O)(=O)c1cccc(-c2nnc(-c3ccc(C)cc3)o2)c1
- RP-LC retention time: 922 s

Structure (SMILES): Cc1nc([C@@H]2CN(C(=O)c3cccs3)C[C@H]2C(N)=O)n[nH]1
- RP-LC retention time: 562 s

Structure (SMILES): Cc1ccccc1C1CCCN1C(=O)c1cnn2cc(Br)cnc12 (stereo unspecified)
- RP-LC retention time: 869 s

Structure (SMILES): CC(C)NC(=O)Cn1cccc(-c2nc(-c3ccc(Cl)cc3)no2)c1=O
- RP-LC retention time: 807 s

Structure (SMILES): O=S(=O)(NCc1ccccc1)c1ccc2c(c1)-c1oncc1CO2
- RP-LC retention time: 860 s

Structure (SMILES): O=C(NC1CCCCCC1)C1CCN(c2cn[nH]c(=O)c2)C1 (stereo unspecified)
- RP-LC retention time: 652 s

Structure (SMILES): O=c1c2cnc3nc(-c4ccccc4)nn3c2ccn1CCc1c[nH]c2ccc(Cl)cc12
- RP-LC retention time: 997 s

Structure (SMILES): COc1ccc2[nH]c3c(c2c1)CCNC3
- RP-LC retention time: 365 s

Structure (SMILES): CCc1noc(COC2CCCN(C(=O)Cn3ccnc3)C2)n1 (stereo unspecified)
- RP-LC retention time: 586 s

Structure (SMILES): CS(=O)(=O)N1CCC(OC2CCN(C(=O)c3ccccc3)CC2)CC1
- RP-LC retention time: 709 s

Structure (SMILES): COc1ccccc1-c1nn2c(-c3cc(C(C)C)[nH]n3)nnc2s1
- RP-LC retention time: 872 s

Structure (SMILES): CCc1nc(N2CCCC2=O)sc1C(=O)NCc1ccccc1Cl
- RP-LC retention time: 874 s

Structure (SMILES): CCCNC(=O)CCc1nc2ccccc2n(CC(=O)Nc2ccc(C(=O)OCC)cc2)c1=O
- RP-LC retention time: 792 s

Structure (SMILES): Cn1nc(C(=O)N2CCCC(C(=O)Nc3ccccc3)C2)c2c1CCN(C(=O)c1cccs1)C2 (stereo unspecified)
- RP-LC retention time: 730 s

Structure (SMILES): Cc1nn(-c2ccc(-c3ccccc3)nn2)c(C)c1S(=O)(=O)NCc1ccc2c(c1)OCO2
- RP-LC retention time: 978 s

Structure (SMILES): O=C(NCc1cccc(F)c1)C1CCN(c2nnc3ccc(Cl)cn23)CC1
- RP-LC retention time: 710 s

Structure (SMILES): CCN1C(=O)c2ccccc2Sc2cc(-c3noc(CNC(=O)c4ccco4)n3)ccc21
- RP-LC retention time: 865 s

Structure (SMILES): CCOC(=O)Cn1c(=O)c2c(nc3n2CC(C)CN3c2ccc(Br)cc2)n(C)c1=O (stereo unspecified)
- RP-LC retention time: 1010 s

Structure (SMILES): COc1ccc(OC)c(NC(=O)N2CCC(CC(=O)NCc3ccc(F)cc3)CC2)c1
- RP-LC retention time: 803 s

Structure (SMILES): Cc1ccc(N2C(=O)CCS2(=O)=O)cc1S(=O)(=O)N1CCC(C(N)=O)CC1
- RP-LC retention time: 638 s

Structure (SMILES): CN(CCc1ccccn1)C(=O)CCC1CCCN(c2cc(NC3CC3)ncn2)C1 (stereo unspecified)
- RP-LC retention time: 561 s

Structure (SMILES): CCN(CC)c1ncc2c(n1)CCC(C(=O)NCc1ccc(C(C)C)cc1)C2 (stereo unspecified)
- RP-LC retention time: 821 s

Structure (SMILES): CC(=O)N1CCc2cc(CNC(=O)c3ccnn3C)ccc21
- RP-LC retention time: 622 s

Structure (SMILES): Cc1c(S(=O)(=O)N2CCOCC2)cc(C(=O)N2CCCC2)n1C
- RP-LC retention time: 658 s

Structure (SMILES): Cc1ccc(-n2c(N3CCCC(C(=O)Nc4ccccc4)C3)nc3ccsc3c2=O)cc1 (stereo unspecified)
- RP-LC retention time: 966 s

Structure (SMILES): CCOc1ccc(-c2noc(Cn3cnc4c(oc5ccccc54)c3=O)n2)cc1OC
- RP-LC retention time: 916 s

Structure (SMILES): O=C(NCCN1C(=O)C2(CCCCC2)C1c1ccccc1)Nc1ccccc1F (stereo unspecified)
- RP-LC retention time: 965 s

Structure (SMILES): COC(=O)CCSCC(=O)Nc1nnc(C)s1
- RP-LC retention time: 602 s

Structure (SMILES): CN(C)CCCN1c2ccccc2Sc2ccc(C(F)(F)F)cc21
- RP-LC retention time: 885 s

Structure (SMILES): CCOC(=O)c1nnc2c(-c3ccc(Br)cc3)c(C)nn2c1C
- RP-LC retention time: 1100 s

Structure (SMILES): COc1ccc(CN(Cc2ccccc2)Cc2cc(=O)n3ccccc3n2)cc1
- RP-LC retention time: 666 s

Structure (SMILES): O=C(C1=CN(c2ccc3c(c2)OCO3)c2cc(Cl)ccc2S1(=O)=O)N1CCCC1
- RP-LC retention time: 847 s

Structure (SMILES): CCCNC(=O)CC1Sc2ncccc2N(CCC)C1=O (stereo unspecified)
- RP-LC retention time: 683 s

Structure (SMILES): Cc1cccc(NC(=O)N2CCCC2c2c(C)noc2C)c1 (stereo unspecified)
- RP-LC retention time: 771 s

Structure (SMILES): CCCCNC(=O)C1CCN(c2cc(N3CCSCC3)ncn2)CC1
- RP-LC retention time: 631 s

Structure (SMILES): Cc1cc(NC(=O)Cn2cnc(-c3ccc(Cl)cc3)cc2=O)no1
- RP-LC retention time: 735 s

Structure (SMILES): CC(C)NC(=O)c1ccc(OCC2CCCN(C(=O)c3ccccc3Cl)C2)cc1 (stereo unspecified)
- RP-LC retention time: 876 s

Structure (SMILES): Cc1ccc(N2C(=O)C3N=NN(Cc4nc(-c5ccccc5C)no4)C3C2=O)cc1Cl (stereo unspecified)
- RP-LC retention time: 1140 s

Structure (SMILES): CC(C)N1C(=O)C(C)(C(=O)Nc2ccc(F)c(Cl)c2)Oc2cccnc21 (stereo unspecified)
- RP-LC retention time: 1070 s

Structure (SMILES): O=C(c1cccc2[nH]ccc12)N1CCCC(c2n[nH]c(C3CC3)n2)C1 (stereo unspecified)
- RP-LC retention time: 606 s

Structure (SMILES): O=C(c1ccccc1)N1CCc2cc(CNS(=O)(=O)c3ccccc3)ccc21
- RP-LC retention time: 819 s
